Legend:
[1] = tested on: VEGFR (DNA, G4) GGGTACCCGGGTGAGGTGCGGGGT; assay: fluorescence polarization (intrinsic pomalidomide fluorescence); conditions: 100 mM KCl; 10 mM Li-cacodylate, pH 7.4; ligand 0.2 µM; fit assumes two sites per G4; per site
[2] = tested on: NRAS (RNA, G4) UGUGGGAGGGGCGGGUCUGGGUGC; assay: as above; conditions: 100 mM KCl; 10 mM Li-cacodylate, pH 7.4; ligand 0.2 µM; fit assumes two sites per G4; per site
[3] = tested on: dsDNA (DNA, hairpin) TATAGCTATATTTTTTTATAGCTATA; assay: as above; conditions: 100 mM KCl; 10 mM Li-cacodylate, pH 7.4; ligand 0.2 µM; per site
[4] = tested on: VEGF (DNA, G4) CGGGGCGGGCCTTGGGCGGGGT; assay: as above; conditions: 100 mM KCl; 10 mM Li-cacodylate, pH 7.4; ligand 0.2 µM; fit assumes two sites per G4; per site
[5] = tested on: bcl2 (DNA, G4) GGGCGCGGGAGGAATTGGGCGGG; assay: as above; conditions: 100 mM KCl; 10 mM Li-cacodylate, pH 7.4; ligand 0.2 µM; fit assumes two sites per G4; per site
[6] = tested on: TERRA (RNA, G4) UAAGGGUAAGGGUAAGGGUAAGGG; assay: as above; conditions: 100 mM KCl; 10 mM Li-cacodylate, pH 7.4; ligand 0.2 µM; fit assumes two sites per G4; per site
[7] = tested on: ssDNA (DNA, single strand) CCCTAACCCTAACCCTAACCCTAA; assay: as above; conditions: 100 mM KCl; 10 mM Li-cacodylate, pH 7.4; ligand 0.2 µM; per site
[8] = tested on: KRAS (DNA, G4) AGGGCGGTGTGGGAATAGGGAA; assay: as above; conditions: 100 mM KCl; 10 mM Li-cacodylate, pH 7.4; ligand 0.2 µM; fit assumes two sites per G4; per site
[9] = tested on: PARP1 (DNA, G4) TGGGGTCCGAGGCGGGGCTTGGG; assay: as above; conditions: 100 mM KCl; 10 mM Li-cacodylate, pH 7.4; ligand 0.2 µM; fit assumes two sites per G4; per site
[10] = tested on: 19wt (DNA, G4) GGGGGAGGGGTACAGGGGTACAGGGG; assay: as above; conditions: 100 mM KCl; 10 mM Li-cacodylate, pH 7.4; ligand 0.2 µM; fit assumes two sites per G4; per site
[11] = tested on: c-kit1 (DNA, G4) AGGGAGGGCGCTGGGAGGAGGG; assay: as above; conditions: 100 mM KCl; 10 mM Li-cacodylate, pH 7.4; ligand 0.2 µM; fit assumes two sites per G4; per site
[12] = tested on: telo24 (DNA, G4) TTAGGGTTAGGGTTAGGGTTAGGG; assay: as above; conditions: 100 mM KCl; 10 mM Li-cacodylate, pH 7.4; ligand 0.2 µM; fit assumes two sites per G4; per site
cereblon (CRBN) = biological target: T1, cereblon (CRBN) (Homo sapiens, UniProt Q96SW2); assay: TR-FRET displacement of thalidomide-red from Eu3+-cryptate-labeled CRBN; type: binding
T1 construct: Eu3+-cryptate-labeled CRBN
T1 sequence (Q96SW2 whole entry): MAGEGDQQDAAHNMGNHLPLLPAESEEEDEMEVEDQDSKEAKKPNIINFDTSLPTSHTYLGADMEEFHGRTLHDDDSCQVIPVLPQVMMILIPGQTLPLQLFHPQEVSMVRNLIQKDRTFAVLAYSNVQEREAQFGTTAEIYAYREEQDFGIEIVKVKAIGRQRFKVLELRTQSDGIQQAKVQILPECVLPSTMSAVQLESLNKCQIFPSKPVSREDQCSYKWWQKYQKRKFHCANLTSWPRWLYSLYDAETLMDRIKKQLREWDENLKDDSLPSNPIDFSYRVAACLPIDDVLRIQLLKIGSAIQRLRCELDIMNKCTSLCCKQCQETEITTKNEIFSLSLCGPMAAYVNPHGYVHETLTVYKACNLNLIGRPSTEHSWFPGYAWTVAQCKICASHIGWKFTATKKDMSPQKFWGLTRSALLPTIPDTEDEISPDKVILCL
Source text: TR-FRET displacement of thalidomide-red from Eu3+-cryptate-labeled CRBN on cereblon (CRBN) | displacement of thalidomide-red and binding of 1a and 2a to CRBN.

[13] = tested on: bcl2 (DNA, G4) GGGCGCGGGAGGAATTGGGCGGG; assay: fluorescence polarization (pomalidomide fluorescence); conditions: 100 mM K+ (KCl), 10 mM Li-cacodylate, pH 7.4, ligand 0.2 µM, per binding site (two sites per G4)
[14] = tested on: TERRA (RNA, G4) UAAGGGUAAGGGUAAGGGUAAGGG; assay: as above; conditions: 100 mM K+ (KCl), 10 mM Li-cacodylate, pH 7.4, ligand 0.2 µM, per binding site (two sites per G4)

Row | Kd [1] [nM] | Kd [2] [nM] | Kd [3] [nM] | Kd [4] [nM] | Kd [5] [nM] | Kd [6] [nM] | Kd [7] [nM] | Kd [8] [nM] | Kd [9] [nM] | Kd [10] [nM] | Kd [11] [nM] | Kd [12] [nM] | IC50 (cereblon (CRBN)) [nM] | Kd [13] [nM] | Kd [14] [nM] | Compound
1 | 46 ± 18 | 10 ± 5 | > 1200 | 4 ± 3 | 104 ± 53 | 26 ± 22 | > 1200 | 19 ± 14 | 39 ± 16 | 289 ± 184 | 38 ± 41 | 33 ± 17 | – | – | – | Cc1oc2nc1-c1nc(c(CCCNC(=O)CNc3cccc4c3C(=O)N(C3CCC(=O)N(C)C3=O)C4=O)o1)-c1nc(co1)C(=O)N[C@@H](CCCCN)c1nc(co1)-c1nc(co1)-c1nc(co1)C(=O)N[C@H]2CCCCN (some centres unmarked)
2 | 802 ± 325 | 68 ± 56 | > 1200 | 46 ± 23 | 266 ± 178 | 5 ± 4 | > 1200 | 103 ± 45 | 817 ± 447 | 3402 ± 436 | 178 ± 22 | 356 ± 210 | 90 | – | – | Cc1oc2nc1-c1nc(c(CCCNC(=O)CCOCCOCCOCCOCCNc3cccc4c3C(=O)N(C3CCC(=O)NC3=O)C4=O)o1)-c1nc(co1)C(=O)N[C@@H](CCCCN)c1nc(co1)-c1nc(co1)-c1nc(co1)C(=O)N[C@H]2CCCCN (some centres unmarked) [2a]
3 | – | 96 ± 28 | > 1200 | – | – | – | > 1200 | – | – | – | – | 155 ± 29 | – | 278 ± 258 | 110 ± 115 | Cc1oc2nc1-c1nc(c(CCCNC(=O)CCOCCOCCOCCOCCNc3cccc4c3C(=O)N(C3CCC(=O)N(C)C3=O)C4=O)o1)-c1nc(co1)C(=O)N[C@@H](CCCCN)c1nc(co1)-c1nc(co1)-c1nc(co1)C(=O)N[C@H]2CCCCN (some centres unmarked)
4 | 27 ± 5 | 65 ± 2 | > 1200 | 42 ± 38 | 30 ± 13 | 72 ± 39 | > 1200 | 45 ± 35 | 42 ± 40 | 103 ± 27 | 39 ± 23 | 108 ± 75 | 61 | – | – | Cc1oc2nc1-c1nc(c(CCCNC(=O)CNc3cccc4c3C(=O)N(C3CCC(=O)NC3=O)C4=O)o1)-c1nc(co1)C(=O)N[C@@H](CCCCN)c1nc(co1)-c1nc(co1)-c1nc(co1)C(=O)N[C@H]2CCCCN (some centres unmarked) [1a]
